Assay results: patent publication US20220119379A1, “IMMUNOMODULATOR” (HITGEN INC., priority 2019, published 2022)
Read-outs that look alike come from different tables or passages of the source.

Key:
Sting protein [1] = biological target: Sting protein (Homo sapiens, UniProt Q86WV6); assay: Binding affinity test of the compound and Sting protein by protein thermal transfer test (TSA); conditions: Kd fitted from change of ΔTm with compound concentration
Procedure: The protein thermal transfer test (TSA) was used to determine the binding affinity of the compound to Sting protein. The 100 ug/ml Sting protein was mixed with different concentrations of the compound and 5× SYPRO Orange dye in a buffer of 20 mM Hepes, 150 mM NaCl, 1 mM MgCl2, 1 mM DTT, pH=7.5. The protein dissolution curve was measured on a qPCR instrument, the Tm value was fitted with Protein Thermal Shift Software 1.3 software, and the Tm difference of the protein was calculated when different concentrations of compound and no compound were added. The dissociation constant Kd was fitted and obtained according to the change of ΔTm with the concentration of the compound. […] The Kd value of each compound is classified according to the following instructions: […]

Sting protein [2] = biological target: T1, Sting protein (Homo sapiens, UniProt Q86WV6, G230A/H232R/R293Q/R71H); assay: Agonistic function test on Sting protein: IFN-β and CXCL10 (IP10) cytokines produced by THP1 cells (ELISA); type: cell-based; conditions: for EC50: 18 hours, ELISA of supernatant; for activity of stimulating IFN-β and CXCL10 (IP10) cytokines produced by THP1 cells (in words): listed compounds compared with the reference compound
T1 construct: endogenous in cells; host or cells: THP1 cells (Shanghai Cell Bank)
T1 sequence (Q86WV6 whole entry R71H/G230A/H232R/R293Q): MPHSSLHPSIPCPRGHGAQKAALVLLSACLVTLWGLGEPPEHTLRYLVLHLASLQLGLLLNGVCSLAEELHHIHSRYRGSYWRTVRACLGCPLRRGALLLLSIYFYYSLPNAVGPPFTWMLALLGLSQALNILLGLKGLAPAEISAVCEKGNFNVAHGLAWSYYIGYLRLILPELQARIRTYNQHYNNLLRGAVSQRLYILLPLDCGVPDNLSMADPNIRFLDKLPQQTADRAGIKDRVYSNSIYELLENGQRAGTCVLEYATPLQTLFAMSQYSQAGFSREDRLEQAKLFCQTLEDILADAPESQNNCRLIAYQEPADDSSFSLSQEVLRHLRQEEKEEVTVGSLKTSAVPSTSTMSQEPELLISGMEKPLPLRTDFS
Procedure: In this experiment, the function of sting agonist was evaluated by detecting the changes of IFN-β and CXCL10 (IP10) cytokines produced by human peripheral blood mononuclear cell line THP1 cells (Shanghai Cell Bank) stimulated by the compounds. On the first day of the experiment, the ELISA plate was coated according to the IFN-β (R&D, #DY814-05) and IP10 (BD, #550926) ELISA test kit instructions. The compound was dissolved into DMSO stock solution and diluted with culture medium to a 2× working concentration, added to a 96-well plate, 100 μL per well. The THP1 cells in the logarithmic growth phase were taken to count, and were diluted to a concentration of 2*10^6/mL, added to the above-mentioned 96-well plate containing the compounds, with […], per well, mixed well, and incubated in a 37° C., 5% CO2 incubator for 18 hours. On the second day, the above cell culture supernatant was taken, 100 μL per well, and tested according to IFN-β and IP10 ELISA test kits respectively. The OD450 value was read, and converted into IFN-β and IP10 concentration according to the standard curve, and fitted with GraphPad 5.0 to calculate the EC50 value of the dose-efficiency curve.

Sting protein (Homo sapiens, UniProt Q86WV6), sequence (Q86WV6 whole entry H232R, species assumed): as the sequence (Q86WV6 whole entry R71H/G230A/H232R/R293Q) above, with H71R, A230G, Q293R counted along it

| Compound | Kd (Sting protein [1]) [µM] | EC50 (Sting protein [2]; read-out: IFN-β EC50) [nM] | EC50 (Sting protein [2]; read-out: IP10 EC50) [nM] | activity of stimulating IFN-β and CXCL10 (IP10) cytokines produced by THP1 cells (in words) (Sting protein [2]) |
| --- | --- | --- | --- | --- |
| CCc1nc(C)sc1C(=O)Nc1nc2cc(C(N)=O)cc(OCCCN3CCN(C4CC4)CC3)c2n1C/C=C/Cn1c(NC(=O)c2cc(C)nn2CC)nc2cc(C(N)=O)cc(SC)c21 [Example 19] | 1 to 10 | < 10 | < 10 | comparable or even higher activity |
| CCc1nc(C)sc1C(=O)Nc1nc2cc(C(N)=O)cc(OC)c2n1C/C=C/Cn1c(NC(=O)c2c(F)c(C)nn2CC)nc2cc(C(N)=O)cc(OCCCN3CCOCC3)c21 [Example 48] | 1 to 10 | 100 to 1000 | 10 to 100 |  |
| CCc1nc(C)sc1C(=O)Nc1nc2cc(C(N)=O)cc(OCCCN3CCN(C)CC3)c2n1C/C=C/Cn1c(NC(=O)c2cc(C)nn2CC)nc2cc(C(N)=O)cc(SC)c21 [Example 16] | 1 to 10 |  | 100 to 1000 |  |
| CCc1nc(C)sc1C(=O)Nc1nc2cc(C(N)=O)cc(SC)c2n1C/C=C/Cn1c(NC(=O)c2cc(C)nn2CC)nc2cc(C(N)=O)cc(OCCCN3CCN(C(C)C)CC3)c21 [Example 22] | 1 to 10 | 100 to 1000 | 10 to 100 |  |
| CCc1nc(C)sc1C(=O)Nc1nc2cc(C(N)=O)cc(SC)c2n1C/C=C/Cn1c(NC(=O)c2c(F)c(C)nn2CC)nc2cc(C(N)=O)cc(OCCCN3CCOCC3)c21 [Example 52] | 1 to 10 | 10 to 100 | < 10 | comparable or even higher activity |
| CCc1nc(C)sc1C(=O)Nc1nc2cc(C(N)=O)cc(OCCCN3CCN(C(C)=O)CC3)c2n1C/C=C/Cn1c(NC(=O)c2cc(C)nn2CC)nc2cc(C(N)=O)cc(SC)c21 [Example 35] | 1 to 10 | 10 to 100 | 10 to 100 | comparable or even higher activity |
| CCc1nc(C)sc1C(=O)Nc1nc2cc(C(N)=O)cc(OCCCN3CCOCC3)c2n1C/C=C/Cn1c(NC(=O)c2sc(C)nc2CC)nc2cc(C(N)=O)cc(SC)c21 [Example 50] | 1 to 10 | 10 to 100 | 10 to 100 | comparable or even higher activity |
| CCc1nc(C)sc1C(=O)Nc1nc2cc(C(N)=O)cc(OCCCN3CCOCC3)c2n1C/C=C/Cn1c(NC(=O)c2cc(C)nn2CC)nc2cc(C(N)=O)cc(OC)c21 [Example 1] | 1 to 10 | 100 to 1000 | 10 to 100 |  |
| CCc1nc(C)sc1C(=O)Nc1nc2cc(C(N)=O)cc(OCCCN3CCN(C(C)=O)CC3)c2n1C/C=C/Cn1c(NC(=O)c2cc(C)nn2CC)nc2cc(C(N)=O)cc(OC)c21 [Example 11] | 1 to 10 | 100 to 1000 | 10 to 100 |  |
| CCc1nc(C)sc1C(=O)Nc1nc2cc(C(N)=O)cc(OC)c2n1C/C=C/Cn1c(NC(=O)c2cc(C)nn2CC)nc2cc(C(N)=O)cc(SCCCN3CCOCC3)c21 [Example 6] | 1 to 10 | 100 to 1000 | 100 to 1000 |  |
| CCn1nc(C)cc1C(=O)Nc1nc2cc(C(N)=O)cc(OCCCN3CCOCC3)c2n1C/C=C/Cn1c(NC(=O)c2cc(C)nn2CC)nc2cc(C(N)=O)cc(SC)c21 [Example 54, (E)-1-(4-(5-carbamoyl-2-(1-ethyl-3-methyl-1H-pyrazole-5-formylamino)-7-(3-morpholinopropoxy)-1H-benzo[d]imidazol-1-yl)but-2-en-1-yl)-2-(1-ethyl-3-methyl-1H-pyrazole-5-carboxamino)-7-(methylthio)-1H-benzo[d]imidazole-5-formylamide] | 1 to 10 |  |  |  |
| CCn1nc(C)c(F)c1C(=O)Nc1nc2cc(C(N)=O)cc(OCCCN3CCOCC3)c2n1C/C=C/Cn1c(NC(=O)c2c(F)c(C)nn2CC)nc2cc(C(N)=O)cc(SC)c21 [Example 53, (E)-1-(4-(5-carbamoyl-2-(1-ethyl-4-fluoro-3-methyl-1H-pyrazole-5-carboxamino)-7-(3-morpholinopropoxy)-1H-benzo[d]imidazol-1-yl)but-2-en-1-yl)-2-(1-ethyl-4-fluoro-3-methyl-1H-pyrazole-5-formylamino)-7-(methylthio)-1H-benzo[d]imidazole-5-carboxamide] | 1 to 10 | 10 to 100 | < 10 | comparable or even higher activity |
| CCc1nc(C)sc1C(=O)Nc1nc2cc(C(N)=O)cc(OC)c2n1C/C=C/Cn1c(NC(=O)c2cc(C)nn2CC)nc2cc(C(N)=O)cc(OCCCN3CCN(C(C)C)CC3)c21 [Example 14] | 1 to 10 | 100 to 1000 | 100 to 1000 |  |
